Reference: patent publication US8026257B2 (Bristol-Myers Squibb Company, priority 2007, dated 2011)
Structures can show the parent of a compound that is named as a salt.

Columns and labels:
hSERT = hSERT (Homo sapiens, UniProt P31645); test: SERT radioligand binding assay ([125I]RTI-55, HEK-hSERT membranes); conditions: HEK-293 hSERT membranes, 260 pM [125I]RTI-55, 1 hour at room temperature; read-out: SERT IC50
Summary of the method: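 IC50 values derive from four-parameter fits of triplicate percent-inhibition curves, with DMSO as 0% and fluoxetine as 100%. Binding used [125I]RTI-55 at its Kd (520 pM 2× solution) and HEK-hSERT membranes (15 ug/ml 2×) in Tris/NaCl/KCl, pH 7.5, 1 hour, room temperature. Filter-bound radioactivity was counted.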

NK-1 = biological target: T1, NK-1 (Homo sapiens, UniProt P25103); test: NK1 radioligand binding assay ([125I]Substance P, U373 membranes); conditions: U373 cell membranes, 200 pM [125I]Substance P, 1 hour at room temperature
T1 construct: 30 ul/well of a 2×U373 membrane preparation
T1 sequence (P25103 whole entry): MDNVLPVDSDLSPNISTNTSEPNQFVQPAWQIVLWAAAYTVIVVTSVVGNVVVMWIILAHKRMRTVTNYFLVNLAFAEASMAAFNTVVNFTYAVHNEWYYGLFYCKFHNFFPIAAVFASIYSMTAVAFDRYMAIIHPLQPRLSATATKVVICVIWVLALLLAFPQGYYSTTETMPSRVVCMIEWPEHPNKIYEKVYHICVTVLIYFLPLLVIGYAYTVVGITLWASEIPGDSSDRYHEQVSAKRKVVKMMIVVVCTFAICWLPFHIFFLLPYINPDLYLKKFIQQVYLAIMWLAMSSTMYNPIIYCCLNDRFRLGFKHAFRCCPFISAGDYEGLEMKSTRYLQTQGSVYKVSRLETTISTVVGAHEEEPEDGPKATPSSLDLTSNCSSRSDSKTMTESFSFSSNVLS
Summary of the method: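 Displacement of Kd-level [125I]Substance P (400 pM 2× stock) from U373 membranes in pH 7.5 Tris-Cl/MgCl2 buffer with protease inhibitors, 1 h, room temperature. Filtration onto GF/B, then scintillation counting. Percent inhibition, referenced to DMSO and L-733,060 wells, fitted by four-parameter equation to give IC50; triplicate plates.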

hSERT, sequence (P31645 whole entry): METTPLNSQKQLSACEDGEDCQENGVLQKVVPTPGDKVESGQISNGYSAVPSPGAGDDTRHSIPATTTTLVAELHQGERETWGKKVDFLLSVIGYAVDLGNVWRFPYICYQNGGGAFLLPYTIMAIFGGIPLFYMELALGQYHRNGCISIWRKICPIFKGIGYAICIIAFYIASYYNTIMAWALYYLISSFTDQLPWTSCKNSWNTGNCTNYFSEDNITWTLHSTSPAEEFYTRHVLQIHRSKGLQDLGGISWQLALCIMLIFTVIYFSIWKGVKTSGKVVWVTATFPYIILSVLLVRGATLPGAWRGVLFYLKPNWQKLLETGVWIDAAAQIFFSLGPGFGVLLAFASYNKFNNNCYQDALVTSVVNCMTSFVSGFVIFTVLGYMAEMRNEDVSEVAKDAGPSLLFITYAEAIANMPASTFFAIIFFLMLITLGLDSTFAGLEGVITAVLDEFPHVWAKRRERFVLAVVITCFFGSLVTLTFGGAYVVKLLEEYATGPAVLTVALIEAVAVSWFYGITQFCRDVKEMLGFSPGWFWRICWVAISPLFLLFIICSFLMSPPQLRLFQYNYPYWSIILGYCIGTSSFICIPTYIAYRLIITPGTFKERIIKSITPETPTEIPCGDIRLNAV

SMILES | IC50 (hSERT) [nM] | IC50 (NK-1) [nM]
CN1CCC(COC(CC#N)c2cc(Cl)cc3cn[nH]c23)(c2ccc(F)cc2)CC1 (centres unmarked) [Example 110, 3-(5-chloro-1H-indazol-7-yl)-3-((4-(4-fluorophenyl)-1-methylpiperidine-4-yl)methoxy)propanenitrile] | 0.01 to 100 | 0.01 to 100
CC(OCC1(c2ccc(F)cc2)CCN(C)CC1)c1cc(Cl)cc2c(Cl)n[nH]c12 (racemic) [Example 59, (±)-3,5-Dichloro-7-(1-((4-(4-fluorophenyl)-1-methylpiperidin-4-yl)methoxy)ethyl)-1H-indazole] | 0.01 to 100 | 0.01 to 100
CC(OCC1(c2ccc(F)cc2)CCN(C)CC1)c1cc(Cl)cc2c1[nH]c(=O)n2C (centres unmarked) [Example 98, 6-Chloro-4-(1-((4-(4-fluorophenyl)-1-methylpiperidin-4-yl)methoxy)ethyl)-1-methyl-1H-benzo[d]imidazol-2(3H)-one trifluoroacetic acid salt] | 0.01 to 100 | 0.01 to 100
CN(C)CC(OCC1(c2ccc(F)cc2)CCN(C)CC1)c1cc(Cl)cc2cn[nH]c12 (centres unmarked) [Example 112, 2-(5-chloro-1H-indazol-7-yl)-2-((4-(4-fluorophenyl)-1-methylpiperidine-4-yl)methoxy)-N,N-dimethylethanamine] | 100 to 300 | > 300
CN1CCC(CO[C@H](CF)c2cc(Cl)cc3c(Cl)n[nH]c23)(c2ccc(F)cc2)CC1 [Example 109, (S)-3,5-dichloro-7-(2-fluoro-1-((4-(4-fluorophenyl)-1-methylpiperidine-4-yl)methoxy)ethyl)-1H-indazole] | 0.01 to 100 | 0.01 to 100
CCn1cnc2c(C(C)OCC3(c4ccc(F)cc4)CCN(C)CC3)cc(C(F)(F)F)cc21 (single isomer, unassigned) [Example 135] | 0.01 to 100 | > 300
CC(OCC1(c2ccc(F)cc2)CCNCC1)c1cc(C(F)(F)F)cc2cn(C)nc12 (single isomer, unassigned) [Example 28, 7-(1-((4-(4-Fluorophenyl)piperidin-4-yl)methoxy)ethyl)-2-methyl-5-(trifluoromethyl)-2H-indazole] | 100 to 300 | > 300
CN1CCC(COC(CF)c2cc(Cl)cc3cn[nH]c23)(c2ccc(F)cc2)CC1 (centres unmarked) [Example 94, 5-Chloro-7-(2-fluoro-1-((4-(4-fluorophenyl)-1-methylpiperidin-4-yl)methoxy)ethyl)-1H-indazole] | 0.01 to 100 | 0.01 to 100
CC(OCC1(c2ccc(F)cc2)CCN(C)CC1)c1cc(C(F)(F)F)cc2cn(C)nc12 (single isomer, unassigned) [Example 33, 7-(1-((4-(4-Fluorophenyl)-1-methylpiperidin-4-yl)methoxy)ethyl)-2-methyl-5-(trifluoromethyl)-2H-indazole] | 0.01 to 100 | 0.01 to 100
C[C@H](OCC1(c2ccc(F)cc2)CCNCC1)c1cc(Cl)cc2c(Cl)n[nH]c12 [Example 121, (S)-3,5-dichloro-7-(1-((4-(4-fluorophenyl)piperidin-4-yl)methoxy)ethyl)-1h-indazole] | 0.01 to 100 | > 300
CC(OCC1(c2ccc(F)cc2)CCN(C)CC1)c1cc(C(F)(F)F)cc2cnn(C)c12 (single isomer, unassigned) [Example 27, 7-(1-((4-(4-Fluorophenyl)-1-methylpiperidin-4-yl)methoxy)ethyl)-1-methyl-5-(trifluoromethyl)-1H-indazole] | 0.01 to 100 | 100 to 300
Cc1n[nH]c2c(C(C)OCC3(c4ccccc4)CCN(C)CC3)cc(C(F)(F)F)cc12 (racemic) [Example 44, (±)-3-Methyl-7-(1-((1-methyl-4-phenylpiperidin-4-yl)methoxy)ethyl)-5-(trifluoromethyl)-1H-indazole] | 0.01 to 100 | 0.01 to 100
CC(OCC1(c2ccccc2)CCN(C)CC1)c1cc(Cl)cc2cn[nH]c12 (racemic) [Example 39, (±)-5-Chloro-7-(1-((1-methyl-4-phenylpiperidin-4-yl)methoxy)ethyl)-1H-indazole] | 0.01 to 100 | 0.01 to 100
